Measured values as given in patent US20240207337A1, “MYCELIAL CULTURE OF Irpex lacteus AND COMPOSITION COMPRISING SAME AS ACTIVE INGREDIENT FOR PREVENTION AND TREATMENT OF DIABETES MEILLITUS” (LONGRUNN MEDICAL FOOD PTE. LTD., priority 2021, published 2024).

Tests used:
Assay type in all cases: in vivo
db/db mice [1] = assay: Oral glucose tolerance test (OGTT) in db/db mice; conditions: G5: Diabex 400 mg/kg oral
Description: (1) The OGTT measures the body's ability to use glucose.
(2) After 6 days of acclimatization, OGTT test animals were fasted for 16 hours before OGTT (water provided).
(3) Blood glucose was measured 30 minutes before administration of the test substance and once again 30 minutes later, that is, just before glucose administration.
(4) At 30, 60, 90, 120, and 240 min after administration of oral glucose at a dose of 2 g/10 mL/kg, blood was taken from tail veins and measured for glucose levels using a blood glucose meter (Accu-Check Performa).

db/db mice [2] = assay: Histopathological examination of pancreas (H&E) in db/db mice; conditions: G5: Diabex 400 mg/kg/day oral, three weeks
Description: All the experimental animals were anesthetized by inhalation with CO2 and autopsied by laparotomy, and blood was collected from the posterior vena cava. After blood collection, the animals were killed by excision of the abdominal aorta and posterior vena cava and exsanguination. For histopathological examination, hematoxylin & eosin (H&E) staining was conducted to measure numbers and diameters of pancreatic islets and proportions of zymogen granules per unit area of exocrine pancreatic portions.

db/db mice [3] = assay: Blood glucose level after repeated oral administration for three weeks in db/db mice; conditions: G5: Diabex 400 mg/kg/day oral
Description: In this experiment, the test material lyophilizate of a mycelial culture of Irpex lacteus KACC 83046BP was orally administered to the db/db mice, which are an animal model of diabetes, for three weeks and examined for hypoglycemic effect. This test was conducted in the Local Food Institute of Gimcheon University.
For use in tests, sterile water for injection (excipient) was used as a negative control while Diabex tablet ([…], 500 mg) commercially available from Dai Han Pharm. Co., Ltd. (Kyeonggi-do) was used as a positive control. A test substance was divided into three groups: high-, medium-, and low-dose groups, which were prepared in suspension by adding the same amount of the test substance to different amounts of the sterile water for injection.
Blood glucose levels were measured once a week for three weeks during the experiment. In order to objectively measure blood glucose levels, all experimental animals were blocked from eating feed 6 hours before blood glucose measurement on the day of blood glucose measurement. Blood glucose levels were measured using a portable blood glucose meter (Accu-Check Performa/USA).

db/db mice [4] = assay: Blood insulin and c-peptide measurement (ELISA) in db/db mice; conditions: three weeks
Source text: C-peptide is a substance that is secreted when proinsulin, a precursor of insulin, is degraded and released. The peptide, although lacking bioactivity, accounts for the secretion state of insulin. In addition, with a long half-life, C-peptide is used as an index to evaluate insulin secretion. The sera stored in separation were quantitatively assayed for insulin and c-peptide, using an ELISA kit (Shibayagi, AKRIN-011T and AKRCP-031).

db/db mice [5] = assay: Hemato-biochemical examination in db/db mice; conditions: G5: Diabex 400 mg/kg/day oral, three weeks
Description: Of the blood collected for clinical pathology on the day of the end of the experiment, about 200 μL was used for analyzing glycated hemoglobin (HbA1c) while the remainder was left for 30 min or longer at room temperature in a vacutainer tube containing a clot activator and then centrifuged at 3000 rpm for 10 min. The serum obtained by centrifugation was transferred to a new tube and subjected to hemato-biochemical examination.
Using a hemato-biochemical analyzer, whole blood and sera which had been stored separately were subjected to hemato-biological examination for total cholesterol (TCHO), aspartate aminotransferase (AST), high-density lipoprotein (HDL), low-density lipoprotein (LDL), alanine aminotransferase (ALT), and glycated hemoglobin (HbA1c).

## metformin phosphate [Diabex]
db/db mice [1]; 0 min (just before glucose 2 g/kg)
  Blood glucose level (OGTT): 385 ± 33 mg/dL
db/db mice [1]; 30 min after glucose
  Blood glucose level (OGTT): 421 ± 29 mg/dL
db/db mice [1]; 60 min after glucose
  Blood glucose level (OGTT): 343 ± 12 mg/dL
db/db mice [1]; 90 min after glucose
  Blood glucose level (OGTT): 246 ± 26 mg/dL
db/db mice [1]; 120 min after glucose
  Blood glucose level (OGTT): 208 ± 11 mg/dL
db/db mice [1]; 240 min after glucose
  Blood glucose level (OGTT): 174 ± 22 mg/dL
db/db mice [1]; −30 min (before administration)
  Blood glucose level (OGTT): 265 ± 11 mg/dL
db/db mice [2]
  Diameter of islet: 126.25 ± 5.3 μm
  No. of pancreatic Islets: 6.25 ± 0.1 islets/cm^2
  Zymogen granules: 41.39 ± 0.7 %/mm^2 of exocrine pancreas
db/db mice [3]; Day 1 (first day of administration)
  Blood glucose level: 365 ± 24 mg/dL
db/db mice [3]; Week 1
  Blood glucose level: 371 ± 12 mg/dL
db/db mice [3]; Week 2
  Blood glucose level: 452 ± 13 mg/dL
db/db mice [3]; Week 3
  Blood glucose level: 436 ± 11 mg/dL
db/db mice [4]; G5 (Diabex 400 mg/kg) oral
  Blood insulin compared to the negative control (G1): significant decrease
db/db mice [4]; G5: Diabex 400 mg/kg/day oral
  Blood C-peptide level: 459.7 ± 82.3 pg/mL
  Blood insulin level: 1.96 ± 0.39 ng/mL
db/db mice [5]
  ALT: 72.1 ± 4.5 U/L
  AST: 116.5 ± 4.6 U/L
  HDL: 88.2 ± 4.2 mg/dL
  HbA1c: 6.8 ± 0.2 %
  LDL: 25.9 ± 2.7 mg/dL
  TCHO: 116.7 ± 3.2 mg/dL
